Measurements taken from patent publication US8552032B2, “Bicyclic derivatives useful as inhibitors of DPP-1” (Janssen Pharmaceutica NV, priority 2009, dated 2013).

target: T1, recombinant human DPP-1 (Cathepsin C) (Homo sapiens, UniProt P53634); experiment: DPP-1 Inhibition Assay (in vitro), fluorogenic substrate GR-AMC; assay type: biochemical; details: 0.15 nM DPP-1, 10 uM GR-AMC, pH 7.0, room temperature; average value where tested multiple times
T1 construct: made in house
Procedure: Test compounds were assessed for DPP-1 (Cathepsin C) inhibitory activity using a fluorogenic substrate, GR-AMC (Glycine-Arginine-amino-4-methylcoumarin, Bachem, 1-1215). The amount of amino-methylcoumarin released is proportional to the DPP-1 activity, and the reaction is monitored kinetically with a Molecular Devices plate reader using black 96-well plates.
All compounds were tested under room temperature conditions. The assay buffer consisted of 50 mM HEPES, pH 7.0, 100 mM NaCl, 2 mM glutathione (GSH), and 0.002% TWEEN 20. GSH and TWEEN 20 were added to the buffer fresh daily. Just prior to use, an in-house preparation of recombinant human DPP-1 (240 μM stock, MW 49.6 kD) was diluted 600-fold in assay buffer containing fresh 2 mM dithiothreitol (DTT) to activate the enzyme, then diluted into assay buffer (without DTT) 133-fold for a DPP-1 working solution of 3 nM. Test compounds were diluted in DMSO for 20× their final assay concentrations.
Additions to a 96-well black Costar 3915 plates were as follows: 90 μL of 11 μM GR-AMC, 5 μL test compound (followed by mixing), and 5 μL 3 nM DPP1 to start the reaction. Fluorescent reactions were monitored kinetically at 360 nm excitation, 440 nm emission on a Molecular Devices Spectramax XPS reader. The Softmax Pro software of the reader determined the initial velocity of the selected data (the first 3-5 minutes of the reaction), and the best linear regression fit of the initial kinetic data. Final assay conditions were 0.15 nM DPP-1, 10 uM GR-AMC, 50 mM HEPES, pH 7.0, 100 mM NaCl, 2 mM GSH, 0.002% TWEEN 20, 1 uM DTT, 5.0% DMSO. Initial velocity rates were plotted vs. test compound concentration by use of a four-parameter logistics equation (nonlinear regression, sigmoidal dose-response (variable slope), with fixed Hill (1.0) using GraphPad Prism® software for determination of DPP-1 IC50. Within-run assay coefficient of variation (CV) was generally <10%; between-run CV <20%.
Representative compounds of the present invention were tested according to the procedure as described above, with results as listed in Table 12, below.

T1 sequence (P53634 25-463): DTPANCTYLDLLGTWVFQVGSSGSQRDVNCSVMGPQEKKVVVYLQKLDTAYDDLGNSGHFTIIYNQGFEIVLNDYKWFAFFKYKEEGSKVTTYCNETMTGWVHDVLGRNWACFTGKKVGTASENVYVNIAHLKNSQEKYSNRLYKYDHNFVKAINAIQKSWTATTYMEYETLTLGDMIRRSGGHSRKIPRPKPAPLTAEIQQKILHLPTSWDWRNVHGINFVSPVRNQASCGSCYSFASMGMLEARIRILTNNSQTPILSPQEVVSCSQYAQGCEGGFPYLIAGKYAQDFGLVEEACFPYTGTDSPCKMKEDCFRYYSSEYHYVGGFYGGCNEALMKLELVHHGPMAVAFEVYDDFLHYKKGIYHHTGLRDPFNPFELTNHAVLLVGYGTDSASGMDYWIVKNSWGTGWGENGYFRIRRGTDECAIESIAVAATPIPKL

SMILES | IC50 [nM]
CC[C@H](N)C(=O)NCCCc1cc2cc(C(=O)Nc3ccc(OC)c(OC)c3)ccc2[nH]1 (single isomer, unassigned) [Compound 110] | > 10000
N[C@@H](Cc1cccs1)C(=O)N1CCC(c2cc3cc(-c4ccc5c(c4)OCCO5)ccc3[nH]2)CC1 [Compound 3] | 270
COc1ccc(-c2ccc3[nH]c(C4CCN(C(=O)[C@@H](N)Cc5cccs5)CC4)cc3c2)cc1 [Compound 4] | 330
NC(=O)c1cccc(-c2ccc3[nH]c(C4CCN(C(=O)[C@@H](N)Cc5cccs5)CC4)cc3c2)c1 [Compound 5] | 300
N[C@@H](Cc1cccs1)C(=O)N1CCC(c2cc3cc(-c4ccc5c(c4)OCO5)ccc3[nH]2)CC1 [Compound 6] | 260
NC(=O)c1cccc(-c2ccc3[nH]c(C4CCN(C(=O)[C@@H](N)Cc5nccs5)CC4)cc3c2)c1 [Compound 8] | 460
COc1ccc(-c2ccc3[nH]c(C4CCN(C(=O)[C@@H](N)Cn5cccn5)CC4)cc3c2)cc1OC [Compound 11] | ~12000
COc1ccc(-c2ccc3[nH]c(C4CCN(C(=O)[C@@H](N)CC5CCC5)CC4)cc3c2)cc1OC [Compound 12] | 14000
COc1ccc(-c2ccc3[nH]c(C4CCN(C(=O)[C@@H](N)Cc5ccco5)CC4)cc3c2)cc1OC [Compound 13] | 850
COc1ccc(-c2ccc3[nH]c(C4CCN(C(=O)[C@@H](N)Cc5cn(C)cn5)CC4)cc3c2)cc1OC [Compound 14] | 3370
COc1ccc(-c2ccc3[nH]c(C4CCN(C(=O)[C@@H](N)Cc5cccs5)CC4)nc3c2)cc1OC [Compound 18, (S)-2-amino-1-(4-(5-(3,4-dimethoxyphenyl)-1H-benzo[d]imidazol-2-yl)piperidin-1-yl)-3-(thiophen-2-yl)propan-1-one] | 210
NC(=O)c1cccc(-c2ccc3[nH]c(C4CCN(C(=O)[C@@H](N)Cc5cccs5)CC4)nc3c2)c1 [Compound 19] | 240
N#Cc1cccc(-c2ccc3[nH]c(C4CCN(C(=O)[C@@H](N)Cc5cccs5)CC4)cc3c2)c1 [Compound 20] | 200
COc1ccc(-c2ccc3[nH]c(C4CCN(C(=O)[C@@H](N)Cc5nc(C)cs5)CC4)cc3c2)cc1OC [Compound 22] | 18000
COc1ccc(-c2ccc3[nH]c(C4CCN(C(=O)[C@@H](N)Cc5ccc(Cl)s5)CC4)cc3c2)cc1OC [Compound 24] | 5800
N[C@@H](Cc1cccs1)C(=O)N1CCC(c2cc3cc(-c4ccncc4)ccc3[nH]2)CC1 [Compound 26] | 230

SMILES | IC50 [nM]
N[C@@H](Cc1cccs1)C(=O)N1CCC(c2cc3cc(-c4ccc(C(=O)O)cc4)ccc3[nH]2)CC1 [Compound 27] | 590
COc1ccc(-c2ccc3[nH]c(C4CCN(C(=O)C(N)c5cccs5)CC4)cc3c2)cc1OC (centres unmarked) [Compound 28] | > 20000
COc1ccc(-c2ccc3[nH]c(C4CCN(C(=O)C(N)c5ccco5)CC4)cc3c2)cc1OC (centres unmarked) [Compound 29] | > 20000
COc1ccc(-c2ccc3[nH]c(C4CCN(C(=O)C(N)c5ccsc5)CC4)cc3c2)cc1OC (centres unmarked) [Compound 30] | > 20000
CC[C@H](N)C(=O)NCCc1cc2cc(C(=O)Nc3ccc(OC)c(OC)c3)ccc2[nH]1 [Compound 36] | > 10000
N[C@@H](Cc1cccs1)C(=O)NCCc1nc2ccccc2[nH]1 [Compound 37, (S)—N-(2-(1H-benzo[d]imidazol-2-yl)ethyl)-2-amino-3-(thiophen-2-yl)propanamide] | 4250
CC[C@H](N)C(=O)NCCc1nc2ccccc2[nH]1 [Compound 38] | 6500
CC[C@H](N)C(=O)NCCCc1cc2ccccc2[nH]1 [Compound 40, (S)—N-(3-(1H-indol-2-yl)propyl)-2-aminobutanamide] | 2900
CC[C@H](N)C(=O)NCCCc1cc2ccccc2o1 [Compound 42] | 3300
CC[C@H](N)C(=O)NCCCc1cc2ccc(C(=O)N(CC)CC)cc2o1 [Compound 46] | 42000
CC[C@H](NC(=O)OC(C)(C)C)C(=O)NCCCc1cc2cc(C(=O)O)ccc2[nH]1 [Compound 47, (S)-2-(3-(2-(tert-butoxycarbonylamino)butanamido)propyl)-1H-indole-5-carboxylic acid] | 53000
CC[C@H](N)C(=O)NCCCc1cc2cc(C(=O)Nc3nc[nH]n3)ccc2[nH]1 [Compound 48] | 6300
CC[C@H](N)C(=O)NCCCc1cc2cc([N+](=O)[O-])ccc2o1 [Compound 49] | 19000
CC[C@H](N)C(=O)NCCCc1cc2cc(C(=O)Nc3ccccc3)ccc2o1 [Compound 51] | 4100
CC[C@H](N)C(=O)NCCCc1cc2cc(C(=O)NCc3ccccc3)ccc2o1 [Compound 53] | 7400
N[C@@H](Cc1cccs1)C(=O)NCCCc1cc2ccccc2o1 [Compound 56] | 1100

Further compounds by falling IC50, results first:

IC50 [nM] | SMILES
43000 | CC[C@H](N)C(=O)NCCc1nc2ccccc2n1C [Compound 39]
14000 | CC[C@H](N)C(=O)NCCCc1csc2ccccc12 [Compound 43]
9600 | CC[C@H](N)C(=O)NCCCc1cc2cc(-c3ccccc3)ccc2o1 [Compound 45]
6300 | CC[C@H](N)C(=O)NCCCc1cc2ccccc2n1C [Compound 41, (S)-2-amino-N-(3-(1-methyl-1H-indol-2-yl)propyl)butanamide]
4000 | CC[C@H](N)C(=O)NCCCc1cc2cc(C(=O)Nc3cccnc3)ccc2o1 [Compound 52]
3700 | CC[C@H](N)C(=O)N1CCC(c2cc3cc(-c4ccc(OC)c(OC)c4)ccc3[nH]2)CC1 [Compound 9]
2200 | COc1ccc(-c2ccc3[nH]c(C4CCN(C(=O)[C@@H](N)Cc5ccsc5)CC4)cc3c2)cc1OC [Compound 15]
1300 | N[C@@H](Cc1cccs1)C(=O)NCCc1cc2ccccc2o1 [Compound 35]
1200 | N[C@@H](Cc1cccs1)C(=O)N1CCC(c2cc3ccccc3o2)CC1 [Compound 1]
850 | CC[C@H](N)C(=O)NCCCc1cc2cc(C(=O)Nc3cccc4ccccc34)ccc2o1 [Compound 54]
700 | CC[C@H](N)C(=O)NCCCc1cc2cc(C(=O)Nc3ccc4ncsc4c3)ccc2o1 [Compound 57]
540 | N[C@@H](Cc1cccs1)C(=O)N1CCC(c2cc3cc(-c4cccc(C(=O)O)c4)ccc3[nH]2)CC1 [Compound 21]
250 | COc1ccc(-c2ccc3[nH]c(C4CCN(C(=O)[C@@H](N)Cc5cccs5)CC4)cc3c2)cn1 [Compound 25]
240 | CC[C@H](N)C(=O)NCCCc1cc2cc(C(=O)Nc3ccc(OC)c(OC)c3)ccc2[nH]1 [Compound 50, (S)-2-(3-(2-aminobutanamido)propyl)-N-(3,4-dimethoxyphenyl)-1H-indole-5-carboxamide]
220 | CC[C@H](N)C(=O)NCCCc1cc2cc(C(=O)Nc3cccc4ncccc34)ccc2o1 [Compound 55]
140 | COc1ccc(NC(=O)c2ccc3[nH]c(C4CCN(C(=O)[C@@H](N)Cc5cccs5)CC4)cc3c2)cc1OC [Compound 7]
110 | N[C@@H](Cc1cccs1)C(=O)N1CCC(c2cc3cc(-c4cccnc4)ccc3[nH]2)CC1 [Compound 23]
94 | COc1ccc(-c2ccc3[nH]c(C4CCN(C(=O)[C@@H](N)Cc5cccs5)CC4)cc3c2)cc1OC [Compound 2, (S)-2-amino-1-(4-(5-(3,4-dimethoxyphenyl)-1H-indol-2-yl)piperidin-1-yl)-3-(thiophen-2-yl)propan-1-one]
